From patent publication US11130769B2 (Prelude Therapeutics Incorporated, priority 2018, dated 2021)
Read-outs that look alike come from different tables or passages of the source.

Columns and labels:
MCL-1 = MCL-1 (Homo sapiens (Human), UniProt Q07820); test: Cell free Mcl-1:Bim affinity assay (fluorescence polarization competition); format: binding; conditions: 15 nM MCL-1, 5 nM FITC-Bim, 1 hour at room temperature, read-out: BIM_Ki
Protocol: The binding affinity of each compound was measured via a fluorescence polarization competition assay, in which the compound competes for the same binding site with the ligand, and thus leads to a dose-dependent anisotropy reduction. The tracer ligand utilized was a fluorescein isothiocyanate labelled peptide (FITC-[…]) derived from Bim (GenScript).
The assay was carried out in black half-area 96-well NBS plate (Corning), containing 15 nM of MCL-1 (BPS Bioscience), 5 nM of FITC-Bim and 3-fold serial diluted test compounds in a total volume of 50 μL of assay buffer (20 mM HEPES, 50 mM NaCl, 0.002% Tween 20, 1 mM TCEP, and 1% DMSO). The reaction plate was incubated for 1 hour at room temperature. The change of anisotropy is measured with an Envision multimode plate reader (PerkinElmer) at emission wavelength 535 nm. Fluorescence polarization was calculated in mP unit and the percentage inhibition was calculated by % inhibition=100×(mPDMSO−mP)/(mPDMSO−mPPC), in which mPDMSO is the DMSO control, and mPpc is the positive control. IC50 values were determined from a 10-point dose response curve by fitting the percent inhibition against compound concentration using the GraphPad Prism software. The inhibition constant Ki was subsequently calculated according to the Nikolovska-Coleska's equation (Anal. Biochem., 2004, 332, 261),
[formula] • where [I]50 is the concentration of the free inhibitor at 50% inhibition, [L]50 is the concentration of the free labeled ligand at 50% inhibition, [P]0 is the concentration of the free protein at 0% inhibition, and Kd is the dissociation constant of the protein-ligand complex. See Table F. Caspase 3/7 Activity Assay

H929 cells = test: Cell viability assay (H929 10 FBS); format: cell-based; conditions: Homo sapiens, NCI-H929, 24 hours, read-out: H929_10FBS IC50
Protocol: Cell Viability Assay (H929 10 FBS)
Dispense 10 μL aliquot of prepared H929 cells (1:1 ratio of cells:Trypan Blue (#1450013, Bio-Rad)) onto cell counting slide (#145-0011, Bio-Rad) and obtain cell density and cell viability using cell counter (TC20, Bio-Rad). Remove appropriate volume of resuspended cells from culture flask to accommodate 4000 cells/well @ 10 μL/well. Transfer H929 cells to 50 mL conical (#430290, Corning). Spin down at 1000 rpm for 5 min using tabletop centrifuge (SPINCHRON 15, Beckman). Discard supernatant and resuspend cell pellet in modified RPMI 1640 (#10-040-CV, Corning) cell culture media containing 10% FBS (F2422-500 ML, Sigma), sodium pyruvate (100 mM) (#25-000-CL, Corning), HEPES buffer (1 M) (#25-060-CL, Corning) and glucose (200 g/L) (A24940-01, Gibco) to a cell density of 400,000 cells/mL. Dispense 10 μL of resuspended H929 cells per well in 384-well small volume TC treated plate (#784080, Greiner Bio-one) using standard cassette (#50950372, Thermo Scientific) on Multi-drop Combi (#5840310, Thermo Scientific) in laminar flow cabinet. Dispense compounds onto plates using digital liquid dispenser (D300E, Tecan). Incubate plates in humidified tissue culture incubator @ 37° C. for 24 hours. Add 10 μL of prepared CellTiTer-Glo® detection buffer (G7570, Promega) or ATPlite 1 Step detection reagent (#6016731, Perkin Elmer) to each well of 384-well plate using small tube cassette (#24073295, Thermo Scientific) on Combi multi drop, incubate @ RT for 30-60 min. Read plates with microplate reader (PheraStar, BMG Labtech) using 384 well luminescence mode.

Chain of MCL-1 (Q07820 whole entry): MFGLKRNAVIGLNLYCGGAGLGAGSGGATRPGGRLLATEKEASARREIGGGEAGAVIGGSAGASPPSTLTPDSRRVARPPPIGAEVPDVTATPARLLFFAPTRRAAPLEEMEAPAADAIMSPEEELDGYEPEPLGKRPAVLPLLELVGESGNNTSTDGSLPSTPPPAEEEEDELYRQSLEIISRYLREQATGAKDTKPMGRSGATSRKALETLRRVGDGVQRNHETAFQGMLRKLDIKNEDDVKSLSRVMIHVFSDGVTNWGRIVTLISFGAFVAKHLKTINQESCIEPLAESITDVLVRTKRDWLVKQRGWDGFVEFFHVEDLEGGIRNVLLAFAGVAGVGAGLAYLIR

Row | Compound | Ki (MCL-1; class symbols) [nM] | IC50 (H929 cells) [nM] | Ki (MCL-1; numeric values) [nM]
1 | CN1C/C=C/[C@H](OCCN2CC(F)(F)C2)[C@@H]2CC[C@H]2CN2C[C@@]3(CCCc4cc(Cl)ccc43)COc3ccc(cc32)S(=O)(=O)NC(=O)C1(C)C [Example 287, (3R,6R,7S,8E,22S)-6′-Chloro-7-[2-(3,3-difluoroazetidin-1-yl)ethoxy]-11,12,12-trimethyl-15,15-dioxo-spiro[20-oxa-15-thia-1,11,14-triazatetracyclo[14.7.2.03,6.019,24]pentacosa-8,16,18,24-tetraene-22,1′-tetralin]-13-one] | < 1 | < 500 | 
2 | O=C(Cc1nccs1)NS(=O)(=O)c1ccc2c(c1)N(CC1CCC1)C[C@@]1(CCCc3cc(Cl)ccc31)CO2 [Example 16, N-[(3S)-6′-Chloro-5-(cyclobutylmethyl)spiro[2,4-dihydro-1,5-benzoxazepine-3,1′-tetralin]-7-yl]sulfonyl-2-thiazol-2-yl-acetamide] |  | > 1000 | 9
3 | CN1C/C=C/[C@H](OCCN2CC(F)C2)[C@@H]2CC[C@H]2CN2C[C@@]3(CCCc4cc(Cl)ccc43)COc3ccc(cc32)S(=O)(=O)NC(=O)C1(C)C [Example 275, (3R,6R,7S,8E,22S)-6′-Chloro-7-[2-(3-fluoroazetidin-1-yl)ethoxy]-11,12,12-trimethyl-15,15-dioxo-spiro[20-oxa-15-thia-1,11,14-triazatetracyclo[14.7.2.03,6.019,24]pentacosa-8,16,18,24-tetraene-22,1′-tetralin]-13-one] | 1 to 100 | < 500 | 
4 | CN1C/C=C/[C@H](OC(=O)NC2CCC2)[C@@H]2CC[C@H]2CN2C[C@@]3(CCCc4cc(Cl)ccc43)COc3ccc(cc32)S(=O)(=O)NC(=O)C1(C)C [Example 201, [(3R,6R,7S,8E,22S)-6′-Chloro-11,12,12-trimethyl-13,15,15-trioxo-spiro[20-oxa-15-thia-1,11,14-triazatetracyclo[14.7.2.03,6.019,24]pentacosa-8,16,18,24-tetraene-22,1′-tetralin]-7-yl] N-cyclobutylcarbamate] | < 1 | < 500 | 
5 | O=C(NS(=O)(=O)c1ccc2c(c1)N(CC1CCC1)C[C@@]1(CCCc3cc(Cl)ccc31)CO2)OCc1ccccc1 (stereo in doubt) [Example 14, Benzyl N-[6′-chloro-5-(cyclobutylmethyl)spiro[2,4-dihydro-1,5-benzoxazepine-3,1′-tetralin]-7-yl]sulfonylcarbamate] |  |  | 222
6 | COC1CN(C(=O)O[C@H]2/C=C/COC(C)(C)C(=O)NS(=O)(=O)c3ccc4c(c3)N(C[C@@H]3CC[C@H]32)C[C@@]2(CCOc3cc(Cl)ccc32)CO4)C1 [Example 309] |  | < 1000 | 
7 | O=C(NS(=O)(=O)c1ccc2c(c1)N(CC1CCC1)CC1(CCCc3cc(Cl)ccc31)CO2)c1ccc(Cl)cc1 (stereo not shown) [Example 7, 4-Chloro-N-[6′-chloro-5-(cyclobutylmethyl)spiro[2,4-dihydro-1,5-benzoxazepine-3,1′-tetralin]-7-yl]sulfonyl-benzamide] |  |  | 227
8 | CCO[C@@H]1CCN(C(=O)O[C@H]2/C=C/COC(C)(C)C(=O)NS(=O)(=O)c3ccc4c(c3)N(C[C@@H]3CC[C@H]32)C[C@@]2(CCOc3cc(Cl)ccc32)CO4)C1 [Example 308] |  | < 500 | 
9 | CO[C@H]1/C=C/CN2CCC[C@H]2C(=O)NS(=O)(=O)c2ccc3c(c2)N(C[C@@H]2CC[C@H]21)C[C@@]1(CCCc2cc(Cl)ccc21)CO3 [Example 100] |  | > 1000 | 

The next lines start with the values.

Row | Ki (MCL-1; class symbols) [nM] | IC50 (H929 cells) [nM] | Ki (MCL-1; numeric values) [nM] | Compound
10 | < 1 | < 500 |  | CN(C)[C@H]1CCN(C(=O)O[C@H]2/C=C/COC(C)(C)C(=O)NS(=O)(=O)c3ccc4c(c3)N(C[C@@H]3CC[C@H]32)C[C@@]2(CCCc3cc(Cl)ccc32)CO4)C1 [Example 154, [(3R,6R,7S,8E,22S)-6′-Chloro-12,12-dimethyl-13,15,15-trioxo-spiro[11,20-dioxa-15-thia-1,14-diazatetracyclo[14.7.2.03,6.019,24]pentacosa-8,16,18,24-tetraene-22,1′-tetralin]-7-yl] (3S)-3-(dimethylamino)pyrrolidine-1-carboxylate]
11 | < 1 | < 500 |  | CN(C)C(=O)O[C@@]1(C)/C=C/COC(C)(C)C(=O)NS(=O)(=O)c2ccc3c(c2)N(C[C@@H]2CC[C@H]21)C[C@@]1(CCCc2cc(Cl)ccc21)CO3 [Example 293, [(3R,6R,7S,8E,22S)-6′-chloro-7,12,12-trimethyl-13,15,15-trioxo-spiro[11,20-dioxa-15-thia-1,14-diazatetracyclo[14.7.2.03,6.019,24]pentacosa-8,16,18,24-tetraene-22,1′-tetralin]-7-yl] N,N-dimethylcarbamate]
12 | < 1 | < 500 |  | CN(C)C1CN(C(=O)O[C@H]2/C=C/COC(C)(C)C(=O)NS(=O)(=O)c3ccc4c(c3)N(C[C@@H]3CC[C@H]32)C[C@@]2(CCCc3cc(Cl)ccc32)CO4)C1 [Example 52, [(3R,6R,7S,8E,22S)-6′-Chloro-12,12-dimethyl-13,15,15-trioxo-spiro[11,20-dioxa-15-thia-1,14-diazatetracyclo[14.7.2.03,6.019,24]pentacosa-8,16,18,24-tetraene-22,1′-tetralin]-7-yl] 3-(dimethylamino)azetidine-1-carboxylate]
13 | < 1 | < 500 |  | CN(C)C(=O)O[C@H]1/C=C/COC(C)(C)C(=O)NS(=O)(=O)c2ccc3c(c2)N(C[C@@H]2CC[C@H]21)C[C@]1(CO3)OCCc2cc(Cl)ccc21 [Example 250, [(3R,6R,7S,8E,22R)-6′-Chloro-12,12-dimethyl-13,15,15-trioxo-spiro[11,20-dioxa-15-thia-1,14-diazatetracyclo[14.7.2.03,6.019,24]pentacosa-8,16,18,24-tetraene-22,1′-isochromane]-7-yl] N,N-dimethylcarbamate]
14 |  | < 500 |  | CN1C/C=C/[C@H](OC(=O)NC2CC2)[C@@H]2CC[C@H]2CN2C[C@@]3(CCCc4cc(Cl)ccc43)COc3ccc(cc32)S(=O)(=O)NC(=O)C1(C)C [Example 206]
15 |  | > 1000 |  | CO[C@@H]1/C=C/CN(C)C(=O)NS(=O)(=O)c2ccc3c(c2)N(C[C@@H]2CC[C@H]21)C[C@@]1(CCCc2cc(Cl)ccc21)CO3 [Example 108, (3R,6R,7R,8E,21S)-6′-Chloro-7-methoxy-11-methyl-14,14-dioxo-spiro[19-oxa-14-thia-1,11,13-triazatetracyclo[3.7.2.03,6.018,23]tetracosa-8,15,17,23-tetraene-21,1′-tetralin]-12-one]
16 |  | > 1000 |  | CCOC(=O)N(C)[C@@H]1/C=C/COC(C)(C)C(=O)NS(=O)(=O)c2ccc3c(c2)N(C[C@@H]2CC[C@H]21)C[C@@]1(CCCc2cc(Cl)ccc21)CO3 [Example 252]
17 |  | < 500 |  | CN(C)C[C@H]1CCCN1C(=O)O[C@H]1/C=C/COC(C)(C)C(=O)NS(=O)(=O)c2ccc3c(c2)N(C[C@@H]2CC[C@H]21)C[C@@]1(CCCc2cc(Cl)ccc21)CO3 [Example 169]
18 |  | < 500 |  | CN(C)CCN(C)C(=O)O[C@H]1/C=C/COC(C)(C)C(=O)NS(=O)(=O)c2ccc3c(c2)N(C[C@@H]2CC[C@H]21)C[C@@]1(CCOc2cc(Cl)ccc21)CO3 [Example 307]
19 |  | < 500 |  | CN(C)C1CN(C(=O)O[C@H]2/C=C/COC(C)(C)C(=O)NS(=O)(=O)c3ccc4c(c3)N(C[C@@H]3CC[C@H]32)C[C@@]2(CCOc3cc(Cl)ccc32)CO4)C1 [Example 311]
20 |  | < 500 |  | CN(C)[C@@H]1CCN(C(=O)O[C@H]2/C=C/COC(C)(C)C(=O)NS(=O)(=O)c3ccc4c(c3)N(C[C@@H]3CC[C@H]32)C[C@@]2(CCOc3cc(Cl)ccc32)CO4)C1 [Example 310]
